Results taken from patent US10167262B2, “Herbicidal substituted 3-arylpyrazoles” (FMC CORPORATION, priority 2014, dated 2019).

Legend:
Type in all cases: in vivo
[1] = test system: galium (catchweed bedstraw, Galium aparine); assay: Test C pre-/postemergence greenhouse test, plant response rating 0-100; conditions: Postemergence; for Plant response rating, Galium: scale 0 to 100
From the text: (§1) Seeds of plant species selected from blackgrass (Alopecurus myosuroides), Italian ryegrass (Lolium multiflorum), winter wheat (Triticum aestivum), galium (catchweed bedstraw, Galium aparine), corn (Zea mays), large (Lg) crabgrass (Digitaria sanguinalis), giant foxtail (Setaria faberii), johnsongrass (Sorghum halepense), lambsquarters (Chenopodium album), morningglory (Ipomoea coccinea), yellow nutsedge (Cyperus esculentus), pigweed (Amaranthus retroflexus), ragweed (common ragweed, Ambrosia elatior), soybean (Glycine max), barnyardgrass (Echinochloa crus-galli), oilseed rape (Brassica napus), waterhemp (common waterhemp, Amaranthus rudis), and velvetleaf (Abutilon theophrasti) were planted into a blend of loam soil and sand and treated preemergence with test chemicals formulated in a non-phytotoxic solvent mixture which included a surfactant.
(§2) At the same time, plants selected from these crop and weed species and also winter barley (Hordeum vulgare), bermudagrass (Cynodon dactylon), downy bromegrass (Bromus tectorum), canarygrass (Phalaris minor), cocklebur (common cocklebur, Xanthium strumarium), woolly cupgrass (Eriochloa villosa), deadnettle (henbit deadnettle, Lamium amplexicaule), green foxtail (Setaria viridis), goosegrass (Eleusine indica), surinam grass (Brachiaria decumbens), windgrass (Apera spica-venti), chickweed (common chickweed, Stellaria media), kochia (Kochia scoparia), and wild oat (Avena fatua), were planted in pots containing Redi-Earth® planting medium (Scotts Company, 14111 Scottslawn Road, Marysville, Ohio 43041) comprising spaghnum peat moss, vermiculite, wetting agent and starter nutrients and treated with postemergence applications of test chemicals formulated in the same manner. Plants ranged in height from 2 to 18 cm (1- to 4-leaf stage) for postemergence treatments. Treated plants and controls were maintained in a greenhouse for 13 to 15 days, after which time all species were compared to controls and visually evaluated. Plant response ratings, summarized in Table C, are based on a scale of 0 to 100 where 0 is no effect and 100 is complete control. A dash (-) response means no test result.

[2] = test system: Italian ryegrass (Lolium multiflorum); assay: as above
From the text: as §1, §2

[3] = test system: velvetleaf (Abutilon theophrasti); assay: as above
From the text: as §1, §2

[4] = test system: morningglory (Ipomoea coccinea); assay: as above; conditions: Postemergence; for Plant response rating, Morningglory: scale 0 to 100
From the text: as §1, §2

[5] = test system: ragweed (common ragweed, Ambrosia elatior); assay: as above
From the text: as §1, §2

[6] = test system: wheat (Triticum aestivum); assay: Test A pre-/postemergence greenhouse herbicide test, visual injury rating 0-100
In short: (§3)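 Visual injury scored on a 0–100 scale versus untreated controls roughly 10 days after treatment in greenhouse. Treatments were preemergence soil sprays plus postemergence sprays to plants 2–10 cm tall at one- to two-leaf stage, in a surfactant-containing solvent formulation.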

[7] = test system: barnyardgrass (Echinochloa crus-galli); assay: as above
In short: as §3

[8] = test system: velvetleaf (Abutilon theophrasti); assay: as above
In short: as §3

[9] = test system: pigweed (Amaranthus retroflexus); assay: as above
In short: as §3

[10] = test system: morningglory (Ipomoea spp.); assay: as above
In short: as §3

[11] = test system: large (Lg) crabgrass (Digitaria sanguinalis); assay: as above
In short: as §3

corn (Zea mays) = assay: as above
In short: as §3

[12] = test system: giant foxtail (Setaria faberii); assay: as above
In short: as §3

[13] = Postemergence, 250 g ai/ha, scale 0 to 100
[14] = Postemergence, 500 g ai/ha, scale 0 to 100
[15] = Preemergence, 0 to 100 scale (0 no effect, 100 complete control), rate 500 g ai/ha per head r3, sub-head of this section not shown

O=C(c1ccccc1)c1cn(S(=O)(=O)C(F)(F)F)nc1-c1cc(Cl)cc(Cl)c1 [Compound 2]
Plant response rating (0 to 100), Galium ([1]; 62 g ai/ha): 0 | Plant response rating (0 to 100), Galium ([1]; 125 g ai/ha): 0 | Plant response rating, Galium ([1]; 250 g ai/ha): 50 | Plant response rating, Galium ([1]; 500 g ai/ha): 50 | Plant response rating (0 to 100), Ryegrass, Italian ([2]; Postemergence, 62 g ai/ha): 0 | Plant response rating (0 to 100), Ryegrass, Italian ([2]; Postemergence, 125 g ai/ha): 0 | Plant response rating, Ryegrass, Italian [2, 13]: 0 | Plant response rating, Ryegrass, Italian [2, 14]: 0 | Plant response rating, Ryegrass, Italian [2, 15]: 0 | Plant response rating (0 to 100), Velvetleaf ([3]; Postemergence, 62 g ai/ha): 75 | Plant response rating (0 to 100), Velvetleaf ([3]; Postemergence, 125 g ai/ha): 75 | Plant response rating, Velvetleaf [3, 13]: 80 | Plant response rating, Velvetleaf [3, 14]: 85 | Plant response rating, Velvetleaf [3, 15]: 35 | Plant response rating (0 to 100), Morningglory ([4]; 62 g ai/ha): 0 | Plant response rating (0 to 100), Morningglory ([4]; 125 g ai/ha): 0 | Plant response rating, Morningglory ([4]; 250 g ai/ha): 0 | Plant response rating, Morningglory ([4]; 500 g ai/ha): 10 | Plant response rating (0 to 100), Ragweed ([5]; Postemergence, 62 g ai/ha): 40 | Plant response rating (0 to 100), Ragweed ([5]; Postemergence, 125 g ai/ha): 60 | Plant response rating, Ragweed [5, 13]: 60 | Plant response rating, Ragweed [5, 14]: 70 | Plant response rating, Ragweed [5, 15]: 0 | Plant response rating (0 to 100 scale), Wheat ([6]; Postemergence, 125 g ai/ha): 0 | Plant response rating (0 to 100 scale), Wheat ([6]; Postemergence, 500 g ai/ha): 0 | Wheat plant response rating (0 = no effect, 100 = complete control) ([6]; Preemergence, 125 g ai/ha): 0 | Plant response rating (0 to 100 scale), Wheat ([6]; Preemergence, 500 g ai/ha): 0 | Plant response rating (0 to 100 scale), Barnyardgrass ([7]; Postemergence, 125 g ai/ha): 0 | Plant response rating (0 to 100 scale), Barnyardgrass ([7]; Postemergence, 500 g ai/ha): 0 | Barnyardgrass plant response rating (0 = no effect, 100 = complete control) ([7]; Preemergence, 125 g ai/ha): 0 | Plant response rating (0 to 100 scale), Barnyardgrass ([7]; Preemergence, 500 g ai/ha): 0 | Plant response rating (0 to 100 scale), Velvetleaf ([8]; Postemergence, 125 g ai/ha): 90 | Plant response rating (0 to 100 scale), Velvetleaf ([8]; Postemergence, 500 g ai/ha): 100 | Velvetleaf plant response rating (0 = no effect, 100 = complete control) ([8]; Preemergence, 125 g ai/ha): 20 | Plant response rating (0 to 100 scale), Velvetleaf ([8]; Preemergence, 500 g ai/ha): 100 | Plant response rating (0 to 100 scale), Pigweed ([9]; Postemergence, 125 g ai/ha): 90 | Plant response rating (0 to 100 scale), Pigweed ([9]; Postemergence, 500 g ai/ha): 100 | Pigweed plant response rating (0 = no effect, 100 = complete control) ([9]; Preemergence, 125 g ai/ha): 50 | Plant response rating (0 to 100 scale), Pigweed ([9]; Preemergence, 500 g ai/ha): 100 | Plant response rating (0 to 100 scale), Morningglory ([10]; Postemergence, 125 g ai/ha): 0 | Plant response rating (0 to 100 scale), Morningglory ([10]; Postemergence, 500 g ai/ha): 0 | Morningglory plant response rating (0 = no effect, 100 = complete control) ([10]; Preemergence, 125 g ai/ha): 0 | Plant response rating (0 to 100 scale), Morningglory ([10]; Preemergence, 500 g ai/ha): 0 | Plant response rating (0 to 100 scale), Crabgrass, Large ([11]; Postemergence, 125 g ai/ha): 0 | Plant response rating (0 to 100 scale), Crabgrass, Large ([11]; Postemergence, 500 g ai/ha): 0 | Crabgrass, Large plant response rating (0 = no effect, 100 = complete control) ([11]; Preemergence, 125 g ai/ha): 0 | Plant response rating (0 to 100 scale), Crabgrass, Large ([11]; Preemergence, 500 g ai/ha): 0 | Plant response rating (0 to 100 scale), Corn (corn (Zea mays); Postemergence, 125 g ai/ha): 0 | Plant response rating (0 to 100 scale), Corn (corn (Zea mays); Postemergence, 500 g ai/ha): 0 | Corn plant response rating (0 = no effect, 100 = complete control) (corn (Zea mays); Preemergence, 125 g ai/ha): 0 | Plant response rating (0 to 100 scale), Corn (corn (Zea mays); Preemergence, 500 g ai/ha): 0 | Plant response rating (0 to 100 scale), Foxtail, Giant ([12]; Postemergence, 125 g ai/ha): 0 | Plant response rating (0 to 100 scale), Foxtail, Giant ([12]; Postemergence, 500 g ai/ha): 0 | Foxtail, Giant plant response rating (0 = no effect, 100 = complete control) ([12]; Preemergence, 125 g ai/ha): 0 | Plant response rating (0 to 100 scale), Foxtail, Giant ([12]; Preemergence, 500 g ai/ha): 0
